One assay deals with T1, PI3Kα (Homo sapiens, UniProt P42336).
T1 construct: His6 (N); made in house; host or cells: S. frugiperda 9 (Sf9) insect cells
In words: Solid-phase lipid kinase assay of PI3Kα (p110α assay). It counts as biochemical. The settings on record: recombinant truncated human p110α, 10 μM ATP. The text has this:
[Determination of IC50 Values of Compounds in Kinase Assay of PI3Kα]
LABORATORIES (Toronto, Canada). […] [γ^33P]ATP and unlabeled ATP were purchased from […] […] BIOTECH (Buckinghamshire, UK) and ROCHE DIAGNOSTICS (Mannheim, Germany), respectively. Scintillation cocktails and MicroScint PS™ were purchased from PACKARD (Meriden, Conn.). Maxisorp™ plates were purchased from NALGE NUNC INTERNATIONAL K.K. (Tokyo, Japan). All other chemicals not further specified were from WAKO PURE CHEMICALS (Osaka, Japan).
The plates were subsequently air-dried by incubation for at least 2 hours in a fume hood. The reaction was set up by mixing 25 μL/well of assay buffer 2×(100 mM MOPSO/NaOH, 0.2 M NaCl, pH 7.0, 8 mM MgCl2, 2 mg/mL BSA (fatty acid-free)), and 7.5 ng/well PI3Kα in the lipid pre-coated plate. 100× test compounds were added in 2% DMSO. The reaction was started by adding 20 μL/well of ATP mix (final 10 μM ATP; 0.05 μCi/well [γ^33P]ATP). After incubation at RT for 2 hours, the reaction was terminated by adding 50 μl/well stop solution (50 mM EDTA, pH 8.0). The plate was then washed twice with Tris-buffered saline (TBS, pH 7.4). MicroScint PS™ (PACKARD) scintillation mix was added at 100 μL/well, and radioactivity was counted using a TopCount™ (PACKARD) scintillation counter.
The inhibition percent at each concentration of compound was calculated, and IC50 values were determined from the inhibition of curve.

The target in another assay is T2, PI3Kβ (Homo sapiens, UniProt P42338).
T2 construct: His6 (N); made in house; host or cells: S. frugiperda 9 (Sf9) insect cells
T2 sequence (P42338 109-1070): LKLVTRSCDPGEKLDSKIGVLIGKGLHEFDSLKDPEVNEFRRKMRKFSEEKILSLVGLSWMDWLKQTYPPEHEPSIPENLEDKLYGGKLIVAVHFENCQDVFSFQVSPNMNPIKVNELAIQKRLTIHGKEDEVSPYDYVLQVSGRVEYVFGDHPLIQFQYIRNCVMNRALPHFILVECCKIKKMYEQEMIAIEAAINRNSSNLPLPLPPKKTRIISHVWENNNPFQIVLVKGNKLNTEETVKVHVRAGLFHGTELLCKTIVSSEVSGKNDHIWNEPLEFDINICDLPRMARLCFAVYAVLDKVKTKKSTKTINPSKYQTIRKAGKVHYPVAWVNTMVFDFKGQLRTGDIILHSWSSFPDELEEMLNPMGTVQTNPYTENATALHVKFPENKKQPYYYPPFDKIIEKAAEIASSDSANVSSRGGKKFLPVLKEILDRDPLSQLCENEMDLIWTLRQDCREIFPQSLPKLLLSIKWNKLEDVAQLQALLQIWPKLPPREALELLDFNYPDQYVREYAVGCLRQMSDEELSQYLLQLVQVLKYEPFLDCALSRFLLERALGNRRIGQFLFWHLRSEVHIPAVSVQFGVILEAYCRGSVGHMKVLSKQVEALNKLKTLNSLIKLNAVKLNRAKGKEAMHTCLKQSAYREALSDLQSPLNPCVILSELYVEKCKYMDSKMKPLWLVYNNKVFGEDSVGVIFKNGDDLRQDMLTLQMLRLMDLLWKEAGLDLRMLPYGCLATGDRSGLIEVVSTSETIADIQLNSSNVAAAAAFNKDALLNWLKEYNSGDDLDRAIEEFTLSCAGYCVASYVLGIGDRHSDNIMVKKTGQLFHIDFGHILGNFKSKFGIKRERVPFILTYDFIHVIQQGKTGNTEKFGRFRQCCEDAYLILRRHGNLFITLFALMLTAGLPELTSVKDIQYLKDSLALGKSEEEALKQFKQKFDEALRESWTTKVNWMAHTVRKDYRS
In words: Isozyme selectivity test: kinase assay of PI3Kβ (p110β assay). It is filed as biochemical. The settings on record: recombinant truncated p110β, 7.5 ng protein/well. An excerpt: [Isozyme Selectivity Test in PI3K]
Determination of IC50 Values of Compounds in Kinase Assays of PI3Kβ and PI3Kγ

Assay [1] concerns IGF-1 induced AKT phosphorylation in A549 cells. Description: IGF-1 induced AKT phosphorylation assay (A549 cell assay). It is filed as cell-based. To be noted: Homo sapiens; A549 cells, 25 ng/ml IGF-1, phospho-AKT(Ser 473); read-out: average IC50 in the A549 cell assay. In short, it runs like this:
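A549 cells stimulated with 25 ng/ml IGF-1 for 10 min at 37 °C, then fixed in formaldehyde/methanol. Phospho-AKT detected by cell ELISA (primary anti-phospho-AKT, HRP secondary, ECL luminescence); IC50 from inhibition curve.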

The IC50 is the concentration needed to halve the response being measured.

Each structure is given as a SMILES string. Where only a bound is given, the exact number is not on record here.

T1 sequence (P42336 109-1068): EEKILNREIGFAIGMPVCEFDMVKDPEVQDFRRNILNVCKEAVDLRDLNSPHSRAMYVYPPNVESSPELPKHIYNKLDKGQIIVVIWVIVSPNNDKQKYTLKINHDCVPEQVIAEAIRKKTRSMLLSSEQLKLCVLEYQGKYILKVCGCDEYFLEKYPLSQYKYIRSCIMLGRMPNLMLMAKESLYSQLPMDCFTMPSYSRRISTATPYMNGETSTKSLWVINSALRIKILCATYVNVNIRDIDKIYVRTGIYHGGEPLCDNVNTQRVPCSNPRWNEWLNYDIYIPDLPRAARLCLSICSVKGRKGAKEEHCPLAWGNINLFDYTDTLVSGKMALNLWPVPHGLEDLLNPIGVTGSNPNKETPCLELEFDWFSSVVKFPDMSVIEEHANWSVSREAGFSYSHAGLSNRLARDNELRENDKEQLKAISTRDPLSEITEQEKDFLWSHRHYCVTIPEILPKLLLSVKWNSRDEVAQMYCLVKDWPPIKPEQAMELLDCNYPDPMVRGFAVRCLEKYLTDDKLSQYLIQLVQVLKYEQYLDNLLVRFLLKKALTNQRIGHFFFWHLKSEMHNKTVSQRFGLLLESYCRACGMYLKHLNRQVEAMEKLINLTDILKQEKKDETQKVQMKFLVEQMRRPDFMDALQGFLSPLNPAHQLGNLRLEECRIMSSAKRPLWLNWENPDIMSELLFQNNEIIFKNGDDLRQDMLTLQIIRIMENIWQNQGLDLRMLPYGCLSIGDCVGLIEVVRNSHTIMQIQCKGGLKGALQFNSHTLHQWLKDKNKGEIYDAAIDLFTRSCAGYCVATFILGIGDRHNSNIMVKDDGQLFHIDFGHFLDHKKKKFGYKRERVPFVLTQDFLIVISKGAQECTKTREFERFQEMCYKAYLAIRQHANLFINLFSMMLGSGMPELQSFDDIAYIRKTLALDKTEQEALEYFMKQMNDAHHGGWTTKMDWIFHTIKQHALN

Turning to `COc1c(OCCCN2CCOCC2)ccc2c1N=C(NC(=O)c1ccc(CCN3CCCC3)nc1)N1CCN=C21` [Example 14, N-[7-methoxy-8-(3-morpholin-4-ylpropoxy)-2,3-dihydroimidazo[1,2-c]quinazolin-5-yl]-6-(2-pyrrolidin-1-ylethyl)nicotinamide], the results for the IC50 (on PI3Kα; on PI3Kβ; in assay [1]) were 0.01 to 0.1 µM, 0.01 to 0.1 µM and more than 1 µM, respectively.

Take `COc1c(OCCCN2CCOCC2)ccc2c1N=C(NC(=O)c1ccc(NC3CCCC3)nc1)N1CCN=C21` [Example 15, 6-(cyclopentylamino)-N-[7-methoxy-8-(3-morpholin-4-ylpropoxy)-2,3-dihydroimidazo[1,2-c]quinazolin-5-yl]nicotinamide]: the IC50 at PI3Kα was 0.01 to 0.1 µM; on PI3Kβ, 0.01 to 0.1 µM; in assay [1] it was more than 1 µM.

Consider `COc1c(OCCC2CN(CC3CCC3)CCO2)ccc2c1N=C(NC(=O)c1cccnc1)N1CCN=C21` (stereo not drawn) [Example 19, N-(8-{2-[4-(cyclobutylmethyl)morpholin-2-yl]ethoxy}-7-methoxy-2,3-dihydroimidazo[1,2-c]quinazolin-5-yl)nicotinamide], for which the IC50 on PI3Kα is less than 0.01 µM; on PI3Kβ it was less than 0.01 µM; in assay [1], less than 0.1 µM.

On to `COCCN1CCOC(CCOc2ccc3c(c2OC)N=C(NC(=O)c2cccnc2)N2CCN=C32)C1` (stereo not drawn) [Example 20, N-(7-methoxy-8-{2-[4-(2-methoxyethyl)morpholin-2-yl]ethoxy}-2,3-dihydroimidazo[1,2-c]quinazolin-5-yl)nicotinamide], for which the results for the IC50 (at PI3Kα; on PI3Kβ; in assay [1]) were less than 0.01 µM, less than 0.01 µM and less than 0.1 µM, respectively.

For `CCN1CCOC(COc2ccc3c(c2OC)N=C(NC(=O)c2cccnc2)N2CCN=C32)C1` (stereo not drawn) [Example 21, N-{8-[(4-ethylmorpholin-2-yl)methoxy]-7-methoxy-2,3-dihydroimidazo[1,2-c]quinazolin-5-yl}nicotinamide], the IC50 on PI3Kα was 0.01 to 0.1 µM; on PI3Kβ, 0.01 to 0.1 µM; in assay [1], less than 0.1 µM.

For the compound `COc1c(OCCCN2CCOCC2)ccc2c1N=C(NC(=O)c1ccncn1)N1CCN=C21` [Example 24, N-[7-methoxy-8-(3-morpholin-4-ylpropoxy)-2,3-dihydroimidazo[1,2-c]quinazolin-5-yl]pyrimidine-4-carboxamide], the IC50 at PI3Kα was more than 0.1 µM; at PI3Kβ, more than 0.1 µM; in assay [1], more than 1 µM.

Turning to `COc1c(OCCCN2CCOCC2)ccc2c1N=C(NC(=O)c1ccnc(N)n1)N1CCN=C21` [Example 25, 2-amino-N-[7-methoxy-8-(3-morpholin-4-ylpropoxy)-2,3-dihydroimidazo[1,2-c]quinazolin-5-yl]pyrimidine-4-carboxamide], the IC50 on PI3Kα was 0.01 to 0.1 µM; on PI3Kβ, 0.01 to 0.1 µM; in assay [1], more than 1 µM.

Regarding `COc1c(OCCCN2CCOCC2)ccc2c1N=C(NC(=O)c1cn(C)cn1)N1CCN=C21` [Example 26, N-[7-methoxy-8-(3-morpholin-4-ylpropoxy)-2,3-dihydroimidazo[1,2-c]quinazolin-5-yl]-1-methyl-1H-imidazole-4-carboxamide], the IC50 on PI3Kα was 0.01 to 0.1 µM; on PI3Kβ, 0.01 to 0.1 µM; in assay [1], more than 1 µM.

`COc1c(OCCCN2C[C@@H](C)O[C@@H](C)C2)ccc2c1N=C(NC(=O)c1cncnc1)N1CCN=C21` [Example 27, rel-N-(8-{3-[(2R,6S)-2,6-dimethylmorpholin-4-yl]propoxy}-7-methoxy-2,3-dihydroimidazo[1,2-c]quinazolin-5-yl)pyrimidine-5-carboxamide]: the results for the IC50 (on PI3Kα; on PI3Kβ; in assay [1]) were less than 0.01 µM, less than 0.01 µM and less than 0.1 µM, respectively.

In the case of `COc1c(OCCCN2C[C@@H](C)O[C@@H](C)C2)ccc2c1N=C(NC(=O)c1ccc(C)nc1)N1CCN=C21` [Example 28, rel-N-(8-{3-[(2R,6S)-2,6-dimethylmorpholin-4-yl]propoxy}-7-methoxy-2,3-dihydroimidazo[1,2-c]quinazolin-5-yl)-6-methylnicotinamide], the half-inhibitory concentration (IC50) on PI3Kα was less than 0.01 µM; at PI3Kβ, less than 0.01 µM; in assay [1], less than 0.1 µM.

As for `COc1c(OCCCN2C[C@@H](C)O[C@@H](C)C2)ccc2c1N=C(NC(=O)c1ccc(NC(C)=O)nc1)N1CCN=C21` [Example 29, rel-6-acetamido-N-(8-{3-[(2R,6S)-2,6-dimethylmorpholin-4-yl]propoxy}-7-methoxy-2,3-dihydroimidazo[1,2-c]quinazolin-5-yl)nicotinamide], the concentration for half-maximal inhibition (IC50) on PI3Kα was less than 0.01 µM; at PI3Kβ, less than 0.01 µM; in assay [1] it was less than 0.1 µM.

In the case of `COc1c(OCCCN2C[C@@H](C)O[C@@H](C)C2)ccc2c1N=C(NC(=O)c1cnc(N)nc1)N1CCN=C21` [Example 38, rel-2-amino-N-(8-{3-[(2R,6S)-2,6-dimethylmorpholin-4-yl]propoxy}-7-methoxy-2,3-dihydroimidazo[1,2-c]quinazolin-5-yl)pyrimidine-5-carboxamide], the IC50 at PI3Kα was less than 0.01 µM; at PI3Kβ, less than 0.01 µM; in assay [1], less than 0.1 µM.

Consider `COc1c(OCCCN2C[C@@H](C)O[C@@H](C)C2)ccc2c1N=C(NC(=O)c1ccc(N)nc1)N1CCN=C21` [Example 39, rel-6-amino-N-(8-{3-[(2R,6S)-2,6-dimethylmorpholin-4-yl]propoxy}-7-methoxy-2,3-dihydroimidazo[1,2-c]quinazolin-5-yl)nicotinamide], for which the IC50 at PI3Kα is less than 0.01 µM; on PI3Kβ it was less than 0.01 µM; in assay [1], less than 0.1 µM.

For the compound `COCCCNc1ncc(C(=O)NC2=Nc3c(ccc(OCCCN4CCOCC4)c3OC)C3=NCCN23)cn1` [Example 41, N-[7-methoxy-8-(3-morpholin-4-ylpropoxy)-2,3-dihydroimidazo[1,2-c]quinazolin-5-yl]-2-[(3-methoxypropyl)amino]pyrimidine-5-carboxamide], the IC50 on PI3Kα lay in the range of 0.01 to 0.1 µM; on PI3Kβ, 0.01 to 0.1 µM; in assay [1], 0.1 to 1 µM.

For `COc1c(OCCCN2CCOCC2)ccc2c1N=C(NC(=O)c1cnc(NCCCN3CCOCC3)nc1)N1CCN=C21` [Example 43, N-[7-methoxy-8-(3-morpholin-4-ylpropoxy)-2,3-dihydroimidazo[1,2-c]quinazolin-5-yl]-2-[(3-morpholin-4-ylpropyl)amino]pyrimidine-5-carboxamide], the IC50 at PI3Kα is 0.01 to 0.1 µM; on PI3Kβ, 0.01 to 0.1 µM; in assay [1] it was more than 1 µM.

As for `COc1c(OCCCN2CCOCC2)ccc2c1N=C(NC(=O)c1cnc(N3CCCC3)nc1)N1CCN=C21` [Example 47, N-[7-methoxy-8-(3-morpholin-4-ylpropoxy)-2,3-dihydroimidazo[1,2-c]quinazolin-5-yl]-2-pyrrolidin-1-ylpyrimidine-5-carboxamide], the IC50 on PI3Kα is 0.01 to 0.1 µM; at PI3Kβ it was 0.01 to 0.1 µM; in assay [1] it was less than 0.1 µM.

Turning to `COc1c(OCCCN2CCOCC2)ccc2c1N=C(NC(=O)c1cnc(N3CCN(C)CC3)nc1)N1CCN=C21` [Example 48, N-[7-methoxy-8-(3-morpholin-4-ylpropoxy)-2,3-dihydroimidazo[1,2-c]quinazolin-5-yl]-2-(4-methylpiperazin-1-yl)pyrimidine-5-carboxamide], the values for the IC50 (at PI3Kα; at PI3Kβ; in assay [1]) were more than 0.1 µM, more than 0.1 µM and more than 1 µM, respectively.

The record behind these values is patent USRE46856E1, “Substituted 2,3-dihydroimidazo[1,2-c]quinazoline derivatives useful for treating hyper-proliferative disorders and diseases associated with angiogenesis” (Bayer Intellectual Property GmbH, priority 2006, dated 2018).
